Laboratory results published in patent publication US9999656B2, “Treatment of short bowel syndrome patients with colon-in-continuity” (Shire-NPS Pharmaceuticals, Inc., priority 2004, dated 2018).

System: patients with short bowel syndrome (SBS)
Assay: 72-hour nutrient balance studies in open-label pilot study of teduglutide
Format: in vivo, human
Details: for Energy Absorption (% of intake), Effect of Treatment (Treatment minus Baseline) mean ± SD / Energy Absorption, Effect of Treatment (Treatment minus Baseline) mean ± SD / Energy Fecal, Effect of Treatment (Treatment minus Baseline) mean ± SD / Urine Wet Weight, Effect of Treatment (Treatment minus Baseline) mean ± SD / Wet Weight Absorption (% of intake), Effect of Treatment (Treatment minus Baseline) mean ± SD / Wet Weight Absorption, Effect of Treatment (Treatment minus Baseline) mean ± SD / Wet Weight Fecal, Effect of Treatment (Treatment minus Baseline) mean ± SD: Days 18-21 vs baseline; for Energy Absorption (% of intake), Effect at Follow up (Follow up minus Baseline) mean ± SD / Energy Absorption, Effect at Follow up (Follow up minus Baseline) mean ± SD / Energy Fecal, Effect at Follow up (Follow up minus Baseline) mean ± SD / Urine Wet Weight, Effect at Follow up (Follow up minus Baseline) mean ± SD / Wet Weight Absorption (% of intake), Effect at Follow up (Follow up minus Baseline) mean ± SD / Wet Weight Absorption, Effect at Follow up (Follow up minus Baseline) mean ± SD / Wet Weight Fecal, Effect at Follow up (Follow up minus Baseline) mean ± SD: follow-up Days 39-42 vs baseline; for decrease in fecal energy excretion compared to baseline: stated as reduction
Description: This was an open-label, pilot study to determine the safety and effect of teduglutide in patients with short bowel syndrome (SBS). The patient's history was reviewed and a physical examination performed to determine eligibility before inclusion in the study. Estimated residual small intestine and colon lengths were determined by reviewing operative reports and available radiographic studies. Eligible patients were admitted as inpatients to hospital wards or General Clinic Research Centers (GCRC) on three separate occasions, 18 days apart, for the last four days and three nights of the baseline period and at the end of the treatment and follow-up periods. Treatment consisted of recombinant teduglutide (supplied by NPS Allelix, Mississauga, ON, Canada) formulated as a lyophilized powder with L-histidine, mannitol, and monobasic and dibasic sodium phosphate (Lot 8502901). Water was added to reconstitute the drug for administration by subcutaneous (s.c.) injections in the abdomen or thigh. Ten SBS patients with jejunostomy received 0.03 mg/kg/d, 0.10 mg/kg/d or 0.15 mg/kg/d once daily for 21 days. Five SBS patients with ≥50% colon-in-continuity received teduglutide 0.10 mg/kg/d once daily for 21 days.
The 72-hour nutrient balance studies were completed with each patient eating their usual diet, calculated from a seven-day food diary completed by the patient during the screening period. It was intended that patients eat the same quantity and quality of food and beverages during each admission. During the 72-hour balance periods, all oral intake (duplicate meals and beverages and declined food), fecal/stomal output, and urine were collected and weighed. All stool samples were refrigerated during the collection period. Stools and diets were separately homogenized and analyzed for energy content (by bomb calorimetry), nitrogen (by the macro-Kjeldahl's method), fat (by the gravimetric technique), and sodium and potassium (by atomic absorption).
Using the SAS (Version 8.2; SAS Institute, Cary, N.C.) statistical program, a Student's paired t test was employed that compared treatment to baseline values, and follow-up to baseline values. No comparisons were made between patients on different doses or with different anatomy due to the limited number of patients in the study. Data are expressed as mean±SD. A value of p<0.05 was considered significant.

[1] = Group 2 SBS end-jejunostomy, N=10, 0.03-0.15 mg/kg/d s.c. once daily 21 days
[2] = Group 2 SBS end-jejunostomy, N=10
[3] = Group 2 SBS end-jejunostomy, of N=10
[4] = Group 3 SBS ≥50% colon-in-continuity, N=5, 0.10 mg/kg/d s.c. once daily 21 days
[5] = Group 3 SBS ≥50% colon-in-continuity, N=5
[6] = Group 3 SBS ≥50% colon-in-continuity, of N=5

## CC[C@H](C)[C@H](NC(=O)[C@H](Cc1ccccc1)NC(=O)[C@H](CC(=O)O)NC(=O)[C@H](CCCNC(=N)N)NC(=O)[C@H](C)NC(=O)[C@H](C)NC(=O)[C@H](CC(C)C)NC(=O)[C@H](CC(N)=O)NC(=O)[C@H](CC(=O)O)NC(=O)[C@H](CC(C)C)NC(=O)[C@@H](NC(=O)[C@@H](NC(=O)[C@H](CC(N)=O)NC(=O)[C@H](CCSC)NC(=O)[C@H](CCC(=O)O)NC(=O)[C@H](CC(=O)O)NC(=O)[C@H](CO)NC(=O)[C@H](Cc1ccccc1)NC(=O)[C@H](CO)NC(=O)CNC(=O)[C@H](CC(=O)O)NC(=O)CNC(=O)[C@@H](N)Cc1c[nH]cn1)[C@@H](C)O)[C@@H](C)CC)C(=O)N[C@@H](CC(N)=O)C(=O)N[C@@H](Cc1c[nH]c2ccccc12)C(=O)N[C@@H](CC(C)C)C(=O)N[C@H](C(=O)N[C@@H](CCC(N)=O)C(=O)N[C@H](C(=O)N[C@@H](CCCCN)C(=O)N[C@H](C(=O)N[C@H](C(=O)N[C@@H](CC(=O)O)C(=O)O)[C@@H](C)O)[C@@H](C)CC)[C@@H](C)O)[C@@H](C)CC [teduglutide, [Gly2]hGLP-2]
[1]
  Energy Absorption (% of intake), Effect of Treatment (Treatment minus Baseline) mean ± SD: 5 ± 20 % of intake
  Energy Absorption, Effect of Treatment (Treatment minus Baseline) mean ± SD: 363 ± 2656 kJ/day
  Energy Fecal, Effect of Treatment (Treatment minus Baseline) mean ± SD: -532 ± 1703 kJ/day
  Urine Wet Weight, Effect of Treatment (Treatment minus Baseline) mean ± SD: 680 ± 535 g/day
  Wet Weight Absorption (% of intake), Effect of Treatment (Treatment minus Baseline) mean ± SD: 20±18 % of intake
  Wet Weight Absorption, Effect of Treatment (Treatment minus Baseline) mean ± SD: 788 ± 551 g/day
  Wet Weight Fecal, Effect of Treatment (Treatment minus Baseline) mean ± SD: -682 ± 911 g/day
[2]
  Energy Absorption (% of intake), Effect at Follow up (Follow up minus Baseline) mean ± SD: −6 ± 12 % of intake
  Energy Absorption, Effect at Follow up (Follow up minus Baseline) mean ± SD: -800 ± 2958 kJ/day
  Energy Fecal, Effect at Follow up (Follow up minus Baseline) mean ± SD: 320 ± 1200 kJ/day
  Urine Wet Weight, Effect at Follow up (Follow up minus Baseline) mean ± SD: 11 ± 287 g/day
  Wet Weight Absorption (% of intake), Effect at Follow up (Follow up minus Baseline) mean ± SD: −9 ± 16 % of intake
  Wet Weight Absorption, Effect at Follow up (Follow up minus Baseline) mean ± SD: -218 ± 577 g/day
  Wet Weight Fecal, Effect at Follow up (Follow up minus Baseline) mean ± SD: 278 ± 496 g/day
[3]
  Energy Absorption (% of intake), Patients With Beneficial Effect: 6
  Energy Absorption (kJ/day), Patients With Beneficial Effect: 6
  Energy Fecal, Patients With Beneficial Effect: 8
  Urine Wet Weight, Patients With Beneficial Effect: 8
  Wet Weight Absorption (% of intake), Patients With Beneficial Effect: 8
  Wet Weight Absorption (g/day), Patients With Beneficial Effect: 9
  Wet Weight Fecal, Patients With Beneficial Effect: 8
Group 2 SBS end-jejunostomy, 21-day treatment, stated as decrease
  decrease in fecal wet weight compared to baseline: 682 ± 911 g/day
Group 2 SBS end-jejunostomy, p>0.05
  decrease in fecal energy excretion compared to baseline: 532 ± 1703 kJ/day
Group 3 SBS colon-in-continuity
  decrease in fecal energy excretion compared to baseline: 1343 ± 916 kJ/day
[4]
  Energy Absorption (% of intake), Effect of Treatment (Treatment minus Baseline) mean ± SD: 10±7 % of intake
  Energy Absorption, Effect of Treatment (Treatment minus Baseline) mean ± SD: 1027 ± 798 kJ/day
  Energy Fecal, Effect of Treatment (Treatment minus Baseline) mean ± SD: -1343 ± 916 kJ/day
  Urine Wet Weight, Effect of Treatment (Treatment minus Baseline) mean ± SD: 461 ± 200 g/day
  Wet Weight Absorption (% of intake), Effect of Treatment (Treatment minus Baseline) mean ± SD: 26±16 % of intake
  Wet Weight Absorption, Effect of Treatment (Treatment minus Baseline) mean ± SD: 751 ± 328 g/day
  Wet Weight Fecal, Effect of Treatment (Treatment minus Baseline) mean ± SD: -822 ± 341 g/day
[5]
  Energy Absorption (% of intake), Effect at Follow up (Follow up minus Baseline) mean ± SD: 10 ± 17 % of intake
  Energy Absorption, Effect at Follow up (Follow up minus Baseline) mean ± SD: 907 ± 1146 kJ/day
  Energy Fecal, Effect at Follow up (Follow up minus Baseline) mean ± SD: -997 ± 1713 kJ/day
  Urine Wet Weight, Effect at Follow up (Follow up minus Baseline) mean ± SD: -90 ± 281 g/day
  Wet Weight Absorption (% of intake), Effect at Follow up (Follow up minus Baseline) mean ± SD: 17 ± 30 % of intake
  Wet Weight Absorption, Effect at Follow up (Follow up minus Baseline) mean ± SD: 352 ± 525 g/day
  Wet Weight Fecal, Effect at Follow up (Follow up minus Baseline) mean ± SD: -240 ± 426 g/day
[6]
  Energy Absorption (% of intake), Patients With Beneficial Effect: 5
  Energy Absorption (kJ/day), Patients With Beneficial Effect: 5
  Energy Fecal, Patients With Beneficial Effect: 4
  Urine Wet Weight, Patients With Beneficial Effect: 5
  Wet Weight Absorption (% of intake), Patients With Beneficial Effect: 5
